Experimental data taken from patent US20060014727A1, “Angiogenic compounds and uses thereof” (priority 2002, published 2006).

Tests used:
[1] = test system: Human umbilical vein endothelial cells (HUVEC); assay: Endothelial sprouting assay; type: cell-based; conditions: HUVEC-coated beads in fibrin gels, 3 days, 0.625 μg/ml to 5 μg/ml, FIG. 1, averages from seven independent experiments
Procedure: Human umbilical vein endothelial cells (HUVEC) from normal umbilical cords were obtained by collagenase treatment. Cultures were propagated in MCDB medium supplemented with 15% FCS, heparin, and endothelial cell growth supplement. Endothelial sprouting was assessed by a modification of the method of Nehls and Drenckhahn ^14. Briefly, microcarrier beads coated with gelatin (Cytodex 3, Sigma) were seeded with HUVEC. When the cells reached confluence on the beads, equal numbers of […] beads were embedded in fibrin gels in 96-well plates. For preparation of fibrin gels, bovine fibrinogen was dissolved in MCDB at a concentration of 2.5 mg/ml. Aprotinin was added at a concentration of 0.05 mg/ml and the solution filtered through a 0.22 micron filter. Fibrinogen solution was supplemented with FGF-2 or sokotrasterol sulphate. As a control, fibrinogen solution without angiogenic factor was used. Following transfer of the fibrinogen solution to 96-well plates, HUVEC-coated beads were added at a density of 50 beads/well, and clotting was induced by the addition of thrombin (1.2 U/ml). […] After 3 days of incubation with daily medium changes, the number of capillary-like tubes formed was quantitated by counting the number of tube-like structures per microcarrier bead (sprouts/bead). Only sprouts greater than 150 μm in length and composed of at least 3 endothelial cells were counted. […]

[2] = test system: chick chorioallantoic membrane (CAM); assay: Chick chorioallantoic membrane (CAM) assay; type: in vivo, Gallus gallus domesticus; conditions: 20, 40 and 60 μg/ml, 20 μl on gelatin sponge, day 8 to day 10
Procedure: Fertilized White Leghorn chicken eggs (Gallus gallus domesticus) were incubated at 37° C. under conditions of constant humidity. All chick eggs were handled according to institutional animal care procedures. On embryonic day 6, the developing chick chorioallantoic membrane (CAM) was separated from the shell by opening a small circular window at the broad end of the egg above the air sac. The embryos were checked for normal development, the window sealed with Parafilm, and the eggs returned to the incubator for 2 more days. On day 8, CAMs were treated with FGF-2 (30 ng/ml), sokotrasterol sulphate (20, 40 and 60 μg/ml) or PBS by loading 20 μl onto 2-mm^3 gelatin sponges (Gelfoam; Pharmacia Upjohn), which were then placed on the surface of the developing CAM. Eggs were resealed and returned to the incubator. On day 10, images of the CAMs were captured digitally using an Olympus SZX9 stereomicroscope (Olympus America) equipped with a Spot RT digital imaging system (Diagnostic Instruments). Neovascularization was quantitated for each CAM by counting the number of vessels that entered the sponge area, and dividing by the perimeter of the sponge (vessels/mm). Northern Eclipse version 6.0 (Empix Imaging Inc.) was used for manual vessel counting and mesh perimeter measurements.

[3] = listed as Sokotrasterol sulphate

sokotrasterol sulphate
endothelial sprouting (number of tube-like structures per microcarrier bead, sprouts/bead) [1]: promoted endothelial sprouting in vitro in a concentration-dependent manner
endothelial sprouting (number of tube-like structures per microcarrier bead, sprouts/bead) [1, 3]: promotes endothelial sprouting in vitro
neovascularization: number of vessels entering the gelatin sponge per mm of perimeter (vessels/mm) [2]: positive concentration-dependent effect
neovascularization: number of vessels entering the gelatin sponge per mm of perimeter (vessels/mm) [2, 3]: promotes angiogenesis
